From US20260224550A1, “PDE4 DEGRADERS, PHARMACEUTICAL COMPOSITIONS, AND THERAPEUTIC APPLICATIONS” (BioTheryX, Inc., priority 2023, published 2026)

What was measured:
[1] = test system: TNFα; experiment: Cell-based cytokine inhibition assay (PBMCs, anti-CD3/anti-CD28 stimulated, MSD kit): TNFα; conditions: PBMC, anti-CD3/anti-CD28 stimulation, 23 h with compound, relative to DMSO control
Protocol: (§1) Frozen primary blood mononuclear cells (PBMCs) were thawed and washed once with RPMI 1640 media supplemented with 10% fetal bovine serum, 1% penicillin, and 1% streptomycin. An anti-CD28 antibody at […] was added to the media as a co-stimulant. PBMCs were plated at 1×10^6 cells per well in a 96-well U bottom plate, which was pre-coated overnight with an anti-CD3 antibody at 1 μg/mL in PBS (100 μL/well). After the place was incubated for 1 h at 37° C. in a CO2 incubator, DMSO (control) or a compound was added. After the place was incubated for 23 h at 37° C. in a CO2 incubator, the cells were spun down at 1,500 rpm for 5 min. Supernatant media was collected for cytokine analysis using an MSD kit. Inhibitory activities of the compound were determined as a percentage of the DMSO control.

[2] = test system: IFNγ; experiment: Cell-based cytokine inhibition assay (PBMCs, anti-CD3/anti-CD28 stimulated, MSD kit): IFNγ; conditions: PBMC, anti-CD3/anti-CD28 stimulation, 23 h with compound, relative to DMSO control
Protocol: as §1

[3] = test system: IL-2; experiment: Cell-based cytokine inhibition assay (PBMCs, anti-CD3/anti-CD28 stimulated, MSD kit): IL-2; conditions: PBMC, anti-CD3/anti-CD28 stimulation, 23 h with compound, relative to DMSO control
Protocol: as §1

[4] = test system: IL-10; experiment: Cell-based cytokine inhibition assay (PBMCs, anti-CD3/anti-CD28 stimulated, MSD kit): IL-10; conditions: PBMC, anti-CD3/anti-CD28 stimulation, 23 h with compound, relative to DMSO control
Protocol: as §1

[5] = test system: PDE4D, in particular, PDE4D short isoform; experiment: Protein degradation assay in A549 cells (western blot): PDE4D; format: cell-based; conditions: 24 h, same conditions
Protocol: A549 cells were grown in RPMI 1640 media supplemented with 10% fetal bovine serum, streptomycin, and penicillin. The cells were plated in 6-well plates at 300,000 cells/well in the growth media. After overnight incubation, the cells were treated with DMSO (control) or a compound at predetermined concentrations (e.g., 10 nM, 100 nM, 1 μM, 3 μM, or 10 μM) for 24 h at 37° C. under 5% CO2. Whole cell extracts were prepared using an immunoprecipitation (IP) lysis buffer. The cells were washed once in PBS, and the cell pellets were resuspended in the IP lysis buffer and incubated for 15 min on ice. Cells debris was removed by centrifugation and the cleared whole cell lysates were transferred to new tubes for further analysis.
For a western blot analysis, the whole cell protein extracts were separated on 4-12% SDS-polyacrylamide gels, transferred to nitrocellulose, and probed with primary antibodies. Membranes were subsequently washed and probed with IRDYE® secondary antibodies. The signals were detected using an ODYSSEY® Imaging System. The antibodies used in the assay included anti-PDE4B antibody; anti-PDE4D antibodies (top, bottom, and short isoform); β-actin mouse monoclonal antibody; IRDYE® 680RD goat anti-rabbit antibody; and IRDYE® 800CW goat anti-mouse antibody.

| IC50 [1] | IC50 [2] | IC50 [3] | IC50 [4] | Structure (SMILES) | degradation of PDE4D (result in words) [5] |
| --- | --- | --- | --- | --- | --- |
| 0.09 nM | 0.3 nM | 0.09 nM | 0.2 nM | CCOc1cc([C@@H](CS(C)(=O)=O)N2C(=O)c3ccc(N4CCN(CC5CCN(Cc6ccc(Oc7ccc8c(C9CCC(=O)NC9=O)nn(C)c8c7)cc6)CC5)CC4)cc3C2=O)ccc1OC (stereo partly drawn) [Compound B002, 5-(4-((1-(4-((3-(2,6-dioxopiperidin-3-yl)-1-methyl-1H-indazol-6-yl)oxy)benzyl)-piperidin-4-yl)methyl)piperazin-1-yl)-2-((S)-1-(3-ethoxy-4-methoxyphenyl)-2-(methylsulfonyl)-ethyl)isoindoline-1,3-dione] | – |
| – | – | – | – | CCOc1cc([C@@H](CS(C)(=O)=O)N2C(=O)c3cccc(NC(C)=O)c3C2=O)ccc1OC [apremilast] | did not degrade |
| 0.3 nM | 0.9 nM | 0.2 nM | 0.3 nM | CCOc1cc([C@@H](CS(C)(=O)=O)N2C(=O)c3ccc(N4CCC(C5CCN(Cc6ccc(Oc7ccc8c(C9CCC(=O)NC9=O)nn(C)c8c7)cc6)CC5)CC4)cc3C2=O)ccc1OC (stereo partly drawn) [Compound B001, 5-(1′-(4-((3-(2,6-dioxopiperidin-3-yl)-1-methyl-1H-indazol-6-yl)oxy)benzyl)-[4,4′-bipiperidin]-1-yl)-2-((S)-1-(3-ethoxy-4-methoxyphenyl)-2-(methylsulfonyl)ethyl)-isoindoline-1,3-dione] | – |
